One experiment concerns Colo205 cells. Kind of experiment: Colo205 cell proliferation, 3H thymidine incorporation. It is filed as cell-based. The settings on record: Homo sapiens. Here is the method: Colo205 cells were seeded in 96 well plates and serially diluted compound was added to the wells in duplicate. Control groups included untreated cells, the compound diluent (0.1% DMSO alone) and culture medium without cells.
To measure proliferation, 3 h prior to the end of the experiment 0.5 μCi of 3H thymidine was added to each well. Cells were then harvested and the incorporated radioactivity counted on a Wallac microplate beta-counter. Cell viability was assessed using Promega CellTiter 96AQ to measure MTS conversion. Dose response curves were calculated using either Prism 3.0 (GraphPad) or SoftMax Pro 4.3.1 LS (Molecular Devices) software.
For orientation: Uptake of a labelled nucleoside into DNA is a usual measure of proliferation.

For another experiment, the target named is Aurora-1 (Aurora B) (Homo sapiens, UniProt Q96GD4). Kind of experiment: Aurora-1 (Aurora B) inhibition assay (radiometric). It is filed as biochemical. The settings on record: 800 μM ATP; read-out: Aurora B Ki. Here is the method: An assay buffer solution was prepared which consisted of 25 mM HEPES (pH 7.5), 10 mM MgCl2, 0.1% BSA and 10% glycerol. […] To 22 μL of the Aurora-B solution, in a 96-well plate, was added 2 μl of a compound stock solution in DMSO and the mixture allowed to equilibrate for 10 minutes at 25° C. The enzyme reaction was initiated by the addition of 16 μl stock [γ-^33P]-ATP solution (˜20 nCi/μL) prepared in assay buffer, to a final assay concentration of 800 μM. The reaction was stopped after 3 hours by the addition of 16 μL 500 mM phosphoric acid and the levels of ^33P incorporation into the peptide substrate were determined by the following method.
A phosphocellulose 96-well plate (Millipore, Cat no. MAPHNOB50) was pre-treated with 100 μL of a 100 mM phosphoric acid prior to the addition of the enzyme reaction mixture (40 μL). The solution was left to soak on to the phosphocellulose membrane for 30 minutes and the plate subsequently washed four times with 200 μL of a 100 mM phosphoric acid. […] Levels of non-enzyme catalyzed background radioactivity were determined by adding 16 μL of the 500 mM phosphoric acid to control wells, containing all assay components (which acts to denature the enzyme), prior to the addition of the [γ-^33P]-ATP solution. Levels of enzyme catalyzed ^33P incorporation were calculated by subtracting mean background counts from those measured at each inhibitor concentration. […] Ki values were calculated from initial rate data by non-linear regression using the Prism software package (Prism 3.0, Graphpad Software, San Diego, Calif.).

For another experiment, the target named is T1, Aurora-2 (Aurora A) (Homo sapiens, UniProt O14965).
T1 sequence (O14965 1-403): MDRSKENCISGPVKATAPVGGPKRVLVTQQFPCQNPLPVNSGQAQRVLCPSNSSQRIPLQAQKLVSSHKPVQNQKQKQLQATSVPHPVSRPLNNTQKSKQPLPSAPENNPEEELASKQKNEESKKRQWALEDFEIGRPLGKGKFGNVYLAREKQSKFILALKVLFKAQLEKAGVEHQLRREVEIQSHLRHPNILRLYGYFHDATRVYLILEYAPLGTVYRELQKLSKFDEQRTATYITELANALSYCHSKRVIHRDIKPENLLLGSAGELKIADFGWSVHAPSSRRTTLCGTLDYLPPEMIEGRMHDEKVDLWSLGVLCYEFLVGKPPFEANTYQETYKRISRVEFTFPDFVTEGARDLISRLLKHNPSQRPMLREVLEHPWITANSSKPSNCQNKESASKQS
Kind of experiment: Aurora-2 (Aurora A) inhibition assay, coupled enzyme. The format is biochemical. The method, then: Assays were carried out in a mixture of 100 mM Hepes (pH7.5), 10 mM MgCl2, 1 mM DTT, 25 mM NaCl, 2.5 mM phosphoenolpyruvate, 300 μM NADH, 30 μg/ml pyruvate kinase and 10 μg/ml lactate dehydrogenase. […] Assays were carried out at 30° C. and in the presence of 40 nM Aurora-2.
An assay stock buffer solution was prepared containing all of the reagents listed above, with the exception of Aurora-2 and the test compound of interest. […] The plate was preincubated for 10 minutes at 30° C. and the reaction initiated by addition of 10 μl of Aurora-2. Initial reaction rates were determined with a Molecular Devices SpectraMax Plus plate reader over a 10 minute time course. IC50 and Ki data were calculated from non-linear regression analysis using the Prism software package (GraphPad Prism version 3.0cx for Macintosh, GraphPad Software, San Diego Calif., USA).

The target in experiment [1] is N-terminally truncated (Δ 27) Abl kinase (Homo sapiens, UniProt P00519). The experiment is described as follows: Abl kinase activity inhibition assay, coupled enzyme. It is filed as biochemical. Here is the method:
Reactions were carried out in a solution containing 100 mM HEPES (pH 7.5), 10 mM MgCl2, 25 mM NaCl, 300 μM NADH, 1 mM DTT and 3% DMSO. […] Final concentrations of the components of the coupled enzyme system were 2.5 mM phosphoenolpyruvate, 200 μM NADH, 60 μg/ml pyruvate kinase and 20 μg/ml lactate dehydrogenase.
An assay stock buffer solution was prepared containing all of the reagents listed above with the exception of ATP and the test compound of interest. […] Rates of reaction were obtained using a Molecular Devices Spectramax plate reader (Sunnyvale, Calif.) over 10 min at 30° C. The Ki values were determined from the residual rate data as a function of inhibitor concentration using nonlinear regression (Prism 3.0, Graphpad Software, San Diego, Calif.).

The target in the next experiment is Arg (Abl-2) (Homo sapiens, UniProt P42684). Kind of experiment: Arg (Abl-2) inhibition screen. It is filed as biochemical. Particulars: Table 5; ATP at or close to Km. An excerpt:
(§1) Compound(s) were screened for their ability to inhibit Arg (Abl-2), FGFR1, MLK1, Tie2, and TrkA using screening methods known to one of ordinary skill in the art. All of the above enzymes were screened with ATP concentrations at or close to the Km for ATP.

For another experiment, the target named is FGFR1 (Homo sapiens, UniProt P11362). The experiment is described as follows: FGFR1 inhibition screen. The format is biochemical. Particulars: Table 5; ATP at or close to Km.
Excerpt: as §1

[2] abbreviates: COLO 205, read-out: Colo205 inh 3H-Thy incorporation after 96 hours IC50 (uM).
Setting [3] is: 400 μM ATP, 40 nM Aurora-2, read-out: Aurora A Ki.
Setting [4] is: COLO 205, read-out: Colo205 inh 3H-Thy incorporation after 72 hours IC50 (uM).

Molecules are shown by their SMILES. Read-outs that look alike come from different tables or passages of the source.

N-terminally truncated (Δ 27) Abl kinase, sequence (P00519 28-1130 limits assumed, stated change not applied): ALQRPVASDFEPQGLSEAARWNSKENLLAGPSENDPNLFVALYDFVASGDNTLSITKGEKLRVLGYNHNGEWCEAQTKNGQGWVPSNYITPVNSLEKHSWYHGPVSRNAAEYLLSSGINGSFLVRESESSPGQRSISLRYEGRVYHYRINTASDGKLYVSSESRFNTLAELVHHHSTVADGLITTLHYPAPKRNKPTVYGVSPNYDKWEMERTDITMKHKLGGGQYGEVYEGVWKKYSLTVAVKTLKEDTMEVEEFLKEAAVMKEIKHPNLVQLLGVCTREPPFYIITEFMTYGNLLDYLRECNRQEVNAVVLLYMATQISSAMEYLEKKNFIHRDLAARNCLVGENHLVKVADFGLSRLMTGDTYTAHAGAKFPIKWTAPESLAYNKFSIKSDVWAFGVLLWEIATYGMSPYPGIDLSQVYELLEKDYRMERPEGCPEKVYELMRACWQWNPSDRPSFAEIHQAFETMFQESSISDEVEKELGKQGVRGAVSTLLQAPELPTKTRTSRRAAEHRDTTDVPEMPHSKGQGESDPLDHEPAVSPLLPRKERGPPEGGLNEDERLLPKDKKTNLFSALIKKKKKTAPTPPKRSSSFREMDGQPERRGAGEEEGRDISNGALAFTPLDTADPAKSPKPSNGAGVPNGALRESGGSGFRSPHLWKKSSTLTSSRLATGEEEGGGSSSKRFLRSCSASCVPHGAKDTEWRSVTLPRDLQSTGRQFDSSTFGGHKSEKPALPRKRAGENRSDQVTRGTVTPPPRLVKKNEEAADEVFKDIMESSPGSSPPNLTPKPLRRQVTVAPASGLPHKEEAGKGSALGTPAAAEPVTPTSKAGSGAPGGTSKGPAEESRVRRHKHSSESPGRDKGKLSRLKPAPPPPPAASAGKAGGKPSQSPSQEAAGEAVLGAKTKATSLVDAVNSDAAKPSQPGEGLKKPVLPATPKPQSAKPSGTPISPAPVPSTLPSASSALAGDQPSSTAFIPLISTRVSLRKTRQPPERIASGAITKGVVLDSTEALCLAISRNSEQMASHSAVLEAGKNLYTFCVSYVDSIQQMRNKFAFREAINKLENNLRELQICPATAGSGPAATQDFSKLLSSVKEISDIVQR
Aurora-1 (Aurora B), sequence (Q96GD4 whole entry): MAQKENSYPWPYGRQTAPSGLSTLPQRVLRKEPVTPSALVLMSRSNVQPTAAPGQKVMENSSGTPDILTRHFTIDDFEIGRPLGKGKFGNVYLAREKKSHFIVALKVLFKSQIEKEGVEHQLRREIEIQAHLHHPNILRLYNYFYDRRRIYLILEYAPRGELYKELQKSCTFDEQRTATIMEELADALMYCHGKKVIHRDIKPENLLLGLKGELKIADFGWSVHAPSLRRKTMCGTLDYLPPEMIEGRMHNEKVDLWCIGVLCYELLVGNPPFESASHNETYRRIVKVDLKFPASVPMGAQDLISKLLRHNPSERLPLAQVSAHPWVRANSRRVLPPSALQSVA
Arg (Abl-2), sequence (P42684 whole entry, species assumed): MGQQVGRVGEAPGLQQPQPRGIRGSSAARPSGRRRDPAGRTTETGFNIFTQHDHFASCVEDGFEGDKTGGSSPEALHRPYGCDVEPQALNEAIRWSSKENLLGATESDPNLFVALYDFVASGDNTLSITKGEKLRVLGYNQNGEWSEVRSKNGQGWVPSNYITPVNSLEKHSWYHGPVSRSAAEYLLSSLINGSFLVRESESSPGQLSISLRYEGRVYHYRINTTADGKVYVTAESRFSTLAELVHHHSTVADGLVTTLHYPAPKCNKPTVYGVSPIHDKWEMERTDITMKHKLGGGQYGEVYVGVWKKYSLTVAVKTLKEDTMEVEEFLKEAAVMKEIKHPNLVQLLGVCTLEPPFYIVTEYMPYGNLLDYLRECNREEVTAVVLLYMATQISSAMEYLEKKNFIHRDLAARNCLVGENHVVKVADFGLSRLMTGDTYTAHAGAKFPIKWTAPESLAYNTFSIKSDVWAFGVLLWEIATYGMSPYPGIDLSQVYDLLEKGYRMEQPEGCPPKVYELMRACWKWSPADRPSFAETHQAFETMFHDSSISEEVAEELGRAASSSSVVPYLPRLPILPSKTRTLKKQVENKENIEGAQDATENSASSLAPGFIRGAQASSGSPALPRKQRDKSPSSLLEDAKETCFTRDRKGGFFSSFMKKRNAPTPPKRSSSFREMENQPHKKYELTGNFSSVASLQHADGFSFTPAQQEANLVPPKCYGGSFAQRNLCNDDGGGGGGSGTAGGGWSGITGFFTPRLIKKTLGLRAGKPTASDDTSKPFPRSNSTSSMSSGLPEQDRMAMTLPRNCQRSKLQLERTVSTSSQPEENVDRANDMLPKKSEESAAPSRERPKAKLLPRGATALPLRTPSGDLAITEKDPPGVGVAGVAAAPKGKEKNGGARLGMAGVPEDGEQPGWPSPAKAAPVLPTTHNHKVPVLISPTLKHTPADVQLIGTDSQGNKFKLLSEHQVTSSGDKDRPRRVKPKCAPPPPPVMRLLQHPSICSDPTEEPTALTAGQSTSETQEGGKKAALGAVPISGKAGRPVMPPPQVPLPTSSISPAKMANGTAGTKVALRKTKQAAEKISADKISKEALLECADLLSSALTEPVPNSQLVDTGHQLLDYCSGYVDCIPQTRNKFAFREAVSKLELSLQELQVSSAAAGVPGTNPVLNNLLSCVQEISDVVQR
FGFR1, sequence (P11362 22-822, species assumed): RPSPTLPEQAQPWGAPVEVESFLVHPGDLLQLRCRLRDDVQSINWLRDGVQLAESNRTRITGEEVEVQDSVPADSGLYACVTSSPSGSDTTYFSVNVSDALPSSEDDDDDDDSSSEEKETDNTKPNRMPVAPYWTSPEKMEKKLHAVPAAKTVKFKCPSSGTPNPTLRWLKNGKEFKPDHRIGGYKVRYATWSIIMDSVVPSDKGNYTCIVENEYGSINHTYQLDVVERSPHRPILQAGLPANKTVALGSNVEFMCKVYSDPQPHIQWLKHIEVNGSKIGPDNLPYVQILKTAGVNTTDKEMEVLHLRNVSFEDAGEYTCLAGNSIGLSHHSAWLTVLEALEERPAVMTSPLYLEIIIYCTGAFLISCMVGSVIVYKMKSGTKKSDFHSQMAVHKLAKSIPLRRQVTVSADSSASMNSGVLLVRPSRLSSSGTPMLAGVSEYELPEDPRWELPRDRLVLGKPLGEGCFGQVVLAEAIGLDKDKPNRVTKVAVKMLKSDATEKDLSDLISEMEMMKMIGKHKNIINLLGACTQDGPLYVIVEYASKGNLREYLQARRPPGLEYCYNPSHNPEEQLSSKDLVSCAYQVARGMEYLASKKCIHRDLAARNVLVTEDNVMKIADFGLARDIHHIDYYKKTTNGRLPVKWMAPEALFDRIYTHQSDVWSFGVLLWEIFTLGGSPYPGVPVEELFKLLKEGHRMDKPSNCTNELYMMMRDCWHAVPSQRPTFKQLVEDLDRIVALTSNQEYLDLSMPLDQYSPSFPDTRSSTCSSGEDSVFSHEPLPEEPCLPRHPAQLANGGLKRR

By Ki is commonly meant the equilibrium dissociation constant of an inhibitor or competing ligand from its target. For `CCC(=O)Nc1ccc(Sc2nc(Nc3cc(C)n[nH]3)cc(N3CC(O)(CC(C)(C)C)C3)n2)cc1` [Compound I-1], the IC50 in the experiment with Colo205 cells (setting [2]) was found to be 0.047 µM. In addition, the results for the inhibition constant (Ki) on Aurora-1 (Aurora B) and at Aurora-2 (Aurora A) were 7 nM and 0.4 nM, respectively.

On to `CCC(=O)Nc1ccc(Sc2nc(Nc3cc(C)n[nH]3)cc(N3CC(O)(CC)C3)n2)cc1` [Compound I-4], for which the IC50 in the experiment with Colo205 cells (COLO 205, Colo205 cells, 96 hours, read-out: Colo205 inh 3H-Thy incorporation after 96 hours IC50) turned out to be 0.092 µM. Moreover, the inhibition constant Ki is 15 nM on Aurora-1 (Aurora B) and 1.7 nM at Aurora-2 (Aurora A) (setting [3]).

Take `Cc1cc(Nc2cc(N3CC(F)(C4CC4)C3)nc(Sc3ccc(NC(=O)C4(C(F)(F)F)CC4)cc3)n2)[nH]n1` [Compound I-15]: the IC50 with Colo205 cells (setting [4]) was 0.026 µM. The inhibition constant Ki at Aurora-1 (Aurora B) came to 9.6 nM; in experiment [1], 57 nM; on Aurora-2 (Aurora A) (setting [3]) it was 0.4 nM.

As to `CCC(=O)Nc1ccc(Sc2nc(Nc3cc(C)[nH]n3)cc(N3CC(F)(C4CC4)C3)n2)cc1` [Compound I-16], the IC50 in the experiment with Colo205 cells (setting [4]) came out at 0.051 µM. Besides, the Ki at Aurora-1 (Aurora B) is 24 nM; in experiment [1], 170 nM; at Aurora-2 (Aurora A) (setting [3]), 1 nM.

For `Cc1cc(Nc2cc(N3CC(F)(C4CC4)C3)nc(Sc3ccc(NC(=O)CCC(F)(F)F)cc3)n2)[nH]n1` [Compound I-17], the IC50 came to 210 nM against Arg (Abl-2), 0.026 µM with Colo205 cells (setting [4]), 0.019 µM in the experiment with Colo205 cells (setting [2]) and 88 nM on FGFR1. In addition, the figures for the Ki (on Aurora-1 (Aurora B); in experiment [1]; at Aurora-2 (Aurora A) (setting [3])) were 12 nM, 22 nM and 0.62 nM, respectively.

Values taken from patent US8129399B2, “Aminopyrimidines useful as kinase inhibitors” (Vertex Pharmaceuticals Incorporated, priority 2005, dated 2012).
